From patent US20210002232A1, “HETEROCYCLIC COMPOUNDS AS FUNGICIDES” (PI INDUSTRIES LTD., priority 2018, published 2021) come the findings set out here.

The assay concerns Phakopsora pachyrhizi. Put plainly: Phakopsora pachyrhizi test in soybean, preventive spray in greenhouse. The class given is in vivo. Particulars: preventive spray on soybean plants, inoculated one day after treatment, compared to the untreated check, read-out: control (efficacy from disease severity rating).

SMILES strings stand for the structures. Bounds are passed on as bounds.

Regarding `CC(C)(C)C(=O)NCc1ccc(-c2n[nH]c(C(F)(F)F)n2)cc1` [Compound 3, N-(4-(5-(trifluoromethyl)-1h-1,2,4-triazol-3-yl)benzyl)pivalamide], the pest or weed control at 500 ppm was above 90%.

Turning to `CC(C(=O)Nc1ccc(C2=NOC(C(F)(F)F)N2)cc1)c1ccccc1` (centres unmarked) [Compound 20, 2-phenyl-N-(4-(5-(trifluoromethyl)-4,5-dihydro-1,2,4-oxadiazol-3-yl)phenyl)propanamide], the pest or weed control at 500 ppm is above 90%.

As for `CN(Cc1ccc(C2=NOC(C(F)(F)F)N2)cc1)C(=O)C1CC1` (centres unmarked) [Compound 21, N-methyl-N-(4-(5-(trifluoromethyl)-4,5-dihydro-1,2,4-oxadiazol-3-yl)benzyl)cyclopropanecarboxamide], the pest or weed control at 500 ppm was above 90%.

Regarding `CN(Cc1ccc(C2=NOC(C(F)(F)F)N2)cc1)C(=O)C1CCC1` (centres unmarked) [Compound 22, N-methyl-N-(4-(5-(trifluoromethyl)-4,5-dihydro-1,2,4-oxadiazol-3-yl)benzyl)cyclobutanecarboxamide], the pest or weed control at 500 ppm was above 90%.

Regarding `O=C(Cc1ccccc1)Nc1ccc(C2=NOC(C(F)(F)F)N2)cc1` (centres unmarked) [Compound 23, 2-phenyl-N-(4-(5-(trifluoromethyl)-4,5-dihydro-1,2,4-oxadiazol-3-yl)phenyl)acetamide], the pest or weed control at 500 ppm is above 90%.

For the molecule `O=C(Nc1ccc(Cl)cc1F)c1ccc(C2=NOC(C(F)(F)F)N2)cc1` (centres unmarked) [Compound 29, N-(4-chloro-2-fluorophenyl)-4-(5-(trifluoromethyl)-4,5-dihydro-1,2,4-oxadiazol-3-yl)benzamide], the pest or weed control at 500 ppm is above 90%.

As to `Cn1nc(C(F)(F)F)nc1-c1ccc(S(=O)(=O)c2ccccc2)cc1` [Compound 34, 1-methyl-5-(4-(phenylsulfonyl)phenyl)-3-(trifluoromethyl)-1h-1,2,4-triazole], the pest or weed control at 500 ppm was above 90%.

Consider `CS(=O)(=Nc1ccc(-c2n[nH]c(C(F)(F)F)n2)cc1)c1ccc(C(F)(F)F)cc1` (centres unmarked) [Compound 40, Methyl((4-(5-(trifluoromethyl)-1h-1,2,4-triazol-3-yl)phenyl)imino)(4-(trifluoromethyl)phenyl)-λ^6-sulfanone], for which the pest or weed control at 500 ppm was above 90%.

For the molecule `COc1ccc(S(C)(=O)=Nc2ccc(-c3n[nH]c(C(F)(F)F)n3)cc2)cc1` (centres unmarked) [Compound 43, (4-methyoxyphenyl)(methyl)((4-(5-(trifluoromethyl)-1h-1,2,4-triazol-3-yl)phenyl)imino)-λ^6-sulfanone], the pest or weed control at 500 ppm was above 90%.

For the molecule `O=C(Nc1ccc(F)cc1F)c1ccc(-c2nc(C(F)(F)F)n[nH]2)cc1` [Compound 44, N-(2,4-difluorophenyl)-4-(3-(trifluoromethyl)-1h-1,2,4-triazol-5-yl)benzamide], the pest or weed control at 500 ppm was above 90%.

As to `CS(=O)(=NCc1ccc(-c2n[nH]c(C(F)(F)F)n2)cc1)c1cccnc1` (centres unmarked) [Compound 47, Methyl(pyridin-3-yl)((4-(5-(trifluoromethyl)-1h-1,2,4-triazol-3-yl)benzyl)imino)-λ^6-sulfanone], the pest or weed control at 500 ppm is above 90%.

Regarding `O=C(Nc1ccc(F)cc1F)c1ccc(-c2cc(C(F)(F)F)on2)cc1` [Compound 57, N-(2,4-difluorophenyl)-4-(5-(trifluoromethyl)isoxazol-3-yl)benzamide], the pest or weed control at 500 ppm is above 90%.

`CN(CCOc1ccccc1)C(=O)c1ccc(-c2cc(C(F)(F)F)on2)cc1` [Compound 65, N-methyl-N-(2-phenoxyethyl)-4-(5-(trifluoromethyl)isoxazol-3-yl)benzamide]: the pest or weed control at 500 ppm was above 90%.

As to `CS(=O)(=NC(=O)c1ccc(-c2cc(C(F)(F)F)on2)cc1)c1ccccc1` (centres unmarked) [Compound 66, N-(methyl(oxo)(phenyl)-λ^6-sulfaneylidene)-4-(5-(trifluoromethyl)isoxazol-3-yl)benzamide], the pest or weed control at 500 ppm was above 90%.
